Data taken from patent publication US20040253278A1, “Breath Freshening and Oral Cleansing Product Using Carvacrol” (priority 2002, published 2004).
In brackets after ≈: the same amount, converted by molar mass.

What was measured:
Type in all cases: cell-based
both bacteria [1] = assay: MIC of positive control, bacteria not named; settings: "for both bacteria"
Protocol: (§1) In vitro tests were conducted with a gram positive supragingival plaque bacterium, Streptococcus mutans. In addition, two subgingival plaque bacteria associated with oral malodor were tested, Porphyromonas gingivalis and Fusobacterium nucleatum. The MIC (Minimum Inhibitory Concentrations) study protocol is as follows. Chlorhexidine was used as a positive control and sterile water was used as a negative control. Carvacrol was suspended in 10% methanol with 3.8% Tween 80. […] 96 well microtiter plates were used for this study. Each well contained 5×10^5 colony forming units/ml of bacteria, serially diluted agents and bacterial growth medium. All bacterial cultures were incubated at 37° C. and stationary. Bacterial growth was estimated spectrophotometrically at 660 nm, after 48 hours. The MIC for each test bacteria was defined as the minimum concentration of test compound limiting turbidity to […].

both bacteria [2] = assay: MBC of positive control, bacteria not named
Protocol: (§2) The MBC (Minimum bactericidal concentrations) were determined using the 96 well microtiter plate serial dilutions as described above for MIC studies. Serial dilution of cultures in wells showing no visible growth were performed and 10 microliters of culture were plated in triplicate on blood agar plates. Viable colonies were scored after incubation of the plates for 48 hours at 37° C. For each test bacterium, the number of CFU/ml were determined in the initial inoculum. The MBC was defined as the lowest concentration of a test compound that killed at least 99.9% of the cells present in the initial inoculum.

Fusobacterium nucleatum [3] = assay: MIC (minimum inhibitory concentration), 96 well microtiter serial dilution; settings: 48 h
Protocol: as §1

Porphyromonas gingivalis [4] = assay: as above; settings: 48 h
Protocol: as §1

Streptococcus mutans [5] = assay: as above; settings: 48 h
Protocol: as §1

Fusobacterium nucleatum [6] = assay: MBC (minimum bactericidal concentration), plating on blood agar; settings: 48 h
Protocol: as §2

Porphyromonas gingivalis [7] = assay: as above; settings: 48 h
Protocol: as §2

Streptococcus mutans [8] = assay: as above; settings: 48 h
Protocol: as §2

SMILES | MIC (both bacteria [1]) | MBC (both bacteria [2]) | MIC (Fusobacterium nucleatum [3]) | MIC (Porphyromonas gingivalis [4]) | MIC (Streptococcus mutans [5]) | MBC (Fusobacterium nucleatum [6]) | MBC (Porphyromonas gingivalis [7]) | MBC (Streptococcus mutans [8])
[H]/N=C(\N/C(=N/[H])NCCCCCCNC(=N)NC(=N)Nc1ccc(Cl)cc1)Nc1ccc(Cl)cc1 [Cholorhexidine, Chlorhexidine] | 1.25 µg/mL | 1.25 µg/mL | – | – | – | – | – | –
Cc1ccc(C(C)C)cc1O [carvacrol] | – | – | 125 µg/mL (≈ 832 µM) | 125 µg/mL (≈ 832 µM) | 250 µg/mL (≈ 1660 µM) | 125 µg/mL (≈ 832 µM) | 125 µg/mL (≈ 832 µM) | 125 µg/mL (≈ 832 µM)
